From paper PMC6332508, “A Promising PET Tracer for Imaging of α7 Nicotinic Acetylcholine Receptors in the Brain: Design, Synthesis, and in Vivo Evaluation of a Dibenzothiophene-Based Radioligand” (Molecules, 2015)
Where two headings read alike, the source gives them in different places.

How the values were obtained:
human α7 nAChR = biological target: T1, human α7 nAChR (Homo sapiens, UniProt P36544); test: Radioligand displacement at human α7 nAChR, [3H]methyllycaconitine, SH-SY5Y cells; type: binding
T1 construct: expressed in transfected cells; host or cells: SH-SY5Y

human α4β2 nAChR = biological target: T2, human α4β2 nAChR (Homo sapiens, UniProt P17787+P43681); test: Radioligand displacement at human α4β2 nAChR, [3H]epibatidine, HEK293 cells; type: binding; conditions: stably transfected HEK-293 cells, [3H]epibatidine; read-out: Affinity (Ki in nM) hα4β2
T2 construct: expressed in transfected cells; host or cells: HEK293
Procedure: (§1) The affinity of the test compounds for human α4β2 and α3β4 nAChR was determined as described above. In brief, HEK293 cells stably expressing human α4β2 or α3β4 nAChR [66] were cultured. […] Nonspecific binding was determined in the presence of 300 μM (−)-nicotine tartrate. Incubation of the samples, separation of free from receptor-bound radioligand, and data evaluation were performed as described above.

human α3β4 nAChR = biological target: T3, human α3β4 nAChR (Homo sapiens, UniProt P30926+P32297); test: Radioligand displacement at human α3β4 nAChR, [3H]epibatidine, HEK293 cells; type: binding; conditions: stably transfected HEK-293 cells, [3H]epibatidine; read-out: Affinity (Ki in nM) hα3β4
T3 construct: expressed in transfected cells; host or cells: HEK293
Procedure: as §1

rat α6β2* nAChR = rat α6β2* nAChR (Rattus norvegicus, UniProt P12390+P43143); test: [3H]epibatidine binding to antibody-immobilized native rat α6β2* nAChR from striatum; conditions: read-out: Affinity (Ki in nM) rα6β2*, immunoimmobilization with anti-rα6 antibody, [3H]epibatidine 0.1 nM
Procedure: The specificity of the anti-α6 antibody was tested as described. The receptors were prepared and immobilized as previously described by the subunit-specific antibody. […] Incubations were performed in a buffer containing 50 mM Tris-HCl, pH 7, 150 mM NaCl, 5 mM KCl, 1 mM MgCl2, 2.5 mM CaCl2, 2 mg∙mL^−1 BSA, and 0.05% Tween 20. Specific ligand binding was defined as total binding minus the binding in the presence of 100 nM (±)-epibatidine dihydrochloride hydrate.
The experimental data obtained from the binding experiments were analyzed by means of a non-linear least square procedure using the LIGAND program. The Ki values of the test compounds were also determined by means of the LIGAND program by simultaneously fitting the data obtained from three to five independent saturation and competition binding experiments.

human 5-HT3 receptor = biological target: T4, human 5-HT3 receptor (Homo sapiens, UniProt P46098); test: Radioligand binding at human 5-HT3 receptor, [3H]GR65630 (Eurofins Panlabs)
T4 construct: host or cells: HEK-293
T4 sequence (P46098 24-478): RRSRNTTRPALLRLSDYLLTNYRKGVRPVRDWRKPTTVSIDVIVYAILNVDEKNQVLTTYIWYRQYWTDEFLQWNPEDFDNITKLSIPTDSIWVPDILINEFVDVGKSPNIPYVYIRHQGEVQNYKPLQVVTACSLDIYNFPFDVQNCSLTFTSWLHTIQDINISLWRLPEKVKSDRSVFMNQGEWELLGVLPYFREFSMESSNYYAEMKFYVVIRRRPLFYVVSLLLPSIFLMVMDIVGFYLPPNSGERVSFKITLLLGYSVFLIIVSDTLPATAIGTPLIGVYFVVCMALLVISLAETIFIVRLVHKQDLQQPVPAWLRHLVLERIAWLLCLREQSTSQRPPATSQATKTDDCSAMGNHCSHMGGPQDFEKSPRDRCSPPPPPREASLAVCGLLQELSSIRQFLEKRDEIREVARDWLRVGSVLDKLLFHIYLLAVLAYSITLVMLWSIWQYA

α1 nAChR = biological target: T5, α1 nAChR (Homo sapiens, UniProt P02708+P07510+Q07001); test: Off-target radioligand binding assay, α1 nAChR; conditions: 1 μM; significant at ≥50% inhibition or stimulation
T5 construct: Eurofins Panlabs, Inc
Procedure: (§2) The activity of compound 10a was evaluated by a contract research organization (Eurofins Panlabs, Inc.). The test concentration was 1 μM and radioligand binding assays for dopamine transporter (DAT), serotonin transporter (SERT), norepinephrine transporter (NET), monoamine transporter (VMAT), choline transporter, and α1 nAChR performed according to the manufacturer’s protocols.

[1] = biological target: T6, serotonin transporter (SERT) (Homo sapiens, UniProt P31645); test: Off-target radioligand binding assay, SERT; conditions: 1 μM; significant at ≥50% inhibition or stimulation
T6 construct: Eurofins Panlabs, Inc
Procedure: as §2

[2] = biological target: T7, dopamine transporter (DAT) (Homo sapiens, UniProt Q01959); test: Off-target radioligand binding assay, DAT; conditions: 1 μM; significant at ≥50% inhibition or stimulation
T7 construct: Eurofins Panlabs, Inc
Procedure: as §2

[3] = biological target: T8, norepinephrine transporter (NET) (Homo sapiens, UniProt P23975); test: Off-target radioligand binding assay, NET; conditions: 1 μM; significant at ≥50% inhibition or stimulation
T8 construct: Eurofins Panlabs, Inc
Procedure: as §2

[4] = test system: monoamine transporter (VMAT); test: Off-target radioligand binding assay, VMAT; conditions: 1 μM; significant at ≥50% inhibition or stimulation
Procedure: as §2

choline transporter = biological target: T9, choline transporter (Homo sapiens, UniProt Q9GZV3); test: Off-target radioligand binding assay, choline transporter; conditions: 1 μM; significant at ≥50% inhibition or stimulation
T9 construct: Eurofins Panlabs, Inc
T9 sequence (Q9GZV3 1-580): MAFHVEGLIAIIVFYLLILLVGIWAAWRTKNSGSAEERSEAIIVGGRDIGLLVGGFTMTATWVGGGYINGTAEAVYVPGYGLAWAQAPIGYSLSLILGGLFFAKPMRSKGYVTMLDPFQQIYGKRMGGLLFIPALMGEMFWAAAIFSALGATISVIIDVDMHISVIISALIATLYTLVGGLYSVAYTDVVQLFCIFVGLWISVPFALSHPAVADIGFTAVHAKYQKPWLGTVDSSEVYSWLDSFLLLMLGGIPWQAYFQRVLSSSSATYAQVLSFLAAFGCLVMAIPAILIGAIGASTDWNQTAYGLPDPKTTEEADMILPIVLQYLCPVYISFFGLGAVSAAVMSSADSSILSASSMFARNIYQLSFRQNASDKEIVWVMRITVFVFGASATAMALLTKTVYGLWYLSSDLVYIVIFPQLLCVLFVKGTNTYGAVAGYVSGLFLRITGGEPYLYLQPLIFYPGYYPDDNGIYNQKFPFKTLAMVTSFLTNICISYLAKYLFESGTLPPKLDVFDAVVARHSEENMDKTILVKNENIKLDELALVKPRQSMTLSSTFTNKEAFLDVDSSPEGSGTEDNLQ
Procedure: as §2

[5] = Acute toxicity study in rats, single intravenous injection; type: in vivo, Wistar rats
Procedure: The acute toxicity of 10a was assessed when administered by a single intravenous injection to rats followed by an observation period of 2 or 15 day (Hameln rds, Modra, Slovak Republic). The study was performed with 4 test groups, including 1 control and 3 dose groups (6.2, 62 and 620 μg∙kg^−1), with 60 males and 60 females Wistar rats divided into two experiment cohorts: Day 2 (40 males and 40 females) and Day 15 (20 males and 20 females). The animals were weighed and allocated to the test groups based on their body weights. The animals were sacrificed in two time periods (day 2 and day 15 after test item administration) and then examined macroscopically and histopathologically. The following parameters were evaluated: mortality, clinical observation, body weights, food consumption, haematology (white blood cells, red blood cells, hemoglobin, hematocrit, mean corpuscular volume, mean corpuscular hemoglobin, platelets, lympohcytes, neutrophils, eosinophils, basophils, monocytes), clinical chemistry (alkaline phosphatase, aspartate aminotransferase, alanine aminotransferase, glucose, cholesterol, triacylglycerols, creatinine, urea, bilirubin, albumin, calcium, phosphorus, sodium, potassium chloride), pathology and histopathology.

α7 nAChR [6] = conditions: [125I]α-bungarotoxin labelled rat cortical membranes; cited from earlier work
α3β4 nAChR = biological target: α3β4 nAChR; set-up: method as in PMID 24050653; conditions: rat receptor subtype; cited from earlier work
α7 nAChR [7] = biological target: α7 nAChR; set-up: method as in PMID 22281189; conditions: cited from earlier work

T1 sequence (P36544 23-502): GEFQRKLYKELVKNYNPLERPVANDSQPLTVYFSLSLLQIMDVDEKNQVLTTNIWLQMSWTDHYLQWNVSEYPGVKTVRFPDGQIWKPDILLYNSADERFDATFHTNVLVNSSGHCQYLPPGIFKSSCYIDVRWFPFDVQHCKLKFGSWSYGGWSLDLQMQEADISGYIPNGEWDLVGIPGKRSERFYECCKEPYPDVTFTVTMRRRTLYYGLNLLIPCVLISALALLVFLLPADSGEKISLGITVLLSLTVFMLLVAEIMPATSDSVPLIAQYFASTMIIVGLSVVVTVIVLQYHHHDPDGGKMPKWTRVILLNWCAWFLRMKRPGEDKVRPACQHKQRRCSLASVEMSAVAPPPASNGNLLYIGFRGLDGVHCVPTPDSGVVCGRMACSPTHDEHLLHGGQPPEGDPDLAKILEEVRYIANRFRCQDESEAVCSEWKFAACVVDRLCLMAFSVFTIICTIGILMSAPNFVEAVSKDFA
T8 sequence (P23975 whole entry, species assumed): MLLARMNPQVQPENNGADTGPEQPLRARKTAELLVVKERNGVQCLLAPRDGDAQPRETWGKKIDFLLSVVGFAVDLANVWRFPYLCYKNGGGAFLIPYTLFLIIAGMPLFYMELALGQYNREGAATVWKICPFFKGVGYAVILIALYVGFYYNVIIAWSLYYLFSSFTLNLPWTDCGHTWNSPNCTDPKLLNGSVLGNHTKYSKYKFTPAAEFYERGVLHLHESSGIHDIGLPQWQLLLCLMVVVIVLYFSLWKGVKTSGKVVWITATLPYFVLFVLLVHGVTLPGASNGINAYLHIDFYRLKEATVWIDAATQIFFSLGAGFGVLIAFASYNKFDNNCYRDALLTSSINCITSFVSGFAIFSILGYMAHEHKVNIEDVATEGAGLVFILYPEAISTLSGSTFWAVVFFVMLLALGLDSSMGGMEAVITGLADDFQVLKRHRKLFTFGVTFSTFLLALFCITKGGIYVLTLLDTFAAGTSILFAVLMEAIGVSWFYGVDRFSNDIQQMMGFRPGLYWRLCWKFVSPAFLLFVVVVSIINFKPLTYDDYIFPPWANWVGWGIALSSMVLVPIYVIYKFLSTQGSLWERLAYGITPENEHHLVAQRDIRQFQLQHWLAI
T2 sequence (P43681 29-627 limits assumed): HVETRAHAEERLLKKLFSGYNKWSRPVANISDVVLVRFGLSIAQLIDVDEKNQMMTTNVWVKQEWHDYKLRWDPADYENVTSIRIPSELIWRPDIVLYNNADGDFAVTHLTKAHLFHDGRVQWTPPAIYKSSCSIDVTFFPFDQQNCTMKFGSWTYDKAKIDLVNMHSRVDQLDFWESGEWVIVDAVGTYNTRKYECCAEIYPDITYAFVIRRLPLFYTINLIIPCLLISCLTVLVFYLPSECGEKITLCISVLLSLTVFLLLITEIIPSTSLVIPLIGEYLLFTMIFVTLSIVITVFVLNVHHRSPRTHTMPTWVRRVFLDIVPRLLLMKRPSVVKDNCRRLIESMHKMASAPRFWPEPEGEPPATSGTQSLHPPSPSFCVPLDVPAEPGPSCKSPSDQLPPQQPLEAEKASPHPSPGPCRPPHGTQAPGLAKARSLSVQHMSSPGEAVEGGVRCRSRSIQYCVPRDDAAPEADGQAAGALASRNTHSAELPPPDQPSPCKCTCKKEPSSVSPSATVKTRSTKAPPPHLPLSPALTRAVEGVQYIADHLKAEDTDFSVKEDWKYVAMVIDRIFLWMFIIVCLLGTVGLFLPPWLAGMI
T2 sequence (P17787 26-502): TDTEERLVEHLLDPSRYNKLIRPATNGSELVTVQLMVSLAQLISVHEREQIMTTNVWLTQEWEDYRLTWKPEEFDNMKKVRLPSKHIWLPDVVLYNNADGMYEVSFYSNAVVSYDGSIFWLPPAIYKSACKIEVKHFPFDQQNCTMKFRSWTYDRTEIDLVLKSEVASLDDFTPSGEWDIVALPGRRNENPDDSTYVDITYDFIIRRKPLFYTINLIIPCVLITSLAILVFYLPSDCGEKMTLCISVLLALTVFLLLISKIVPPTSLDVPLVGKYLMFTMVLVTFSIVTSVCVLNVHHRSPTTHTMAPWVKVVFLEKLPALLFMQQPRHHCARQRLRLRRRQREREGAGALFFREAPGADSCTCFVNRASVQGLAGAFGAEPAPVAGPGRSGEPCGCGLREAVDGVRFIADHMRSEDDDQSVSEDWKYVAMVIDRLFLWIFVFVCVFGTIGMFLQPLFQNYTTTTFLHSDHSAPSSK
Sequence of rat α6β2* nAChR (P43143 31-493): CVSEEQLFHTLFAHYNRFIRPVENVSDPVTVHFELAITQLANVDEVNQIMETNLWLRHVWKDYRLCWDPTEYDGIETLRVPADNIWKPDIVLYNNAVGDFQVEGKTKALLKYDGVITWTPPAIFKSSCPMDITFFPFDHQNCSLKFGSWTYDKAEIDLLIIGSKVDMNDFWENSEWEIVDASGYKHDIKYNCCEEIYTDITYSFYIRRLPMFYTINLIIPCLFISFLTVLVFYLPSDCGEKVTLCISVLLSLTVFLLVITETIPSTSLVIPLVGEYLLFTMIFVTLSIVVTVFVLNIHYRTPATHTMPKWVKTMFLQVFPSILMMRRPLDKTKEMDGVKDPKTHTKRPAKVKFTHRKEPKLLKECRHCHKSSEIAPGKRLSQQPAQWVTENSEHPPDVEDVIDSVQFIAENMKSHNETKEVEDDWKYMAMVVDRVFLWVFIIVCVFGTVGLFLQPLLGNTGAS
Sequence of rat α6β2* nAChR (P12391 31-464, further chain): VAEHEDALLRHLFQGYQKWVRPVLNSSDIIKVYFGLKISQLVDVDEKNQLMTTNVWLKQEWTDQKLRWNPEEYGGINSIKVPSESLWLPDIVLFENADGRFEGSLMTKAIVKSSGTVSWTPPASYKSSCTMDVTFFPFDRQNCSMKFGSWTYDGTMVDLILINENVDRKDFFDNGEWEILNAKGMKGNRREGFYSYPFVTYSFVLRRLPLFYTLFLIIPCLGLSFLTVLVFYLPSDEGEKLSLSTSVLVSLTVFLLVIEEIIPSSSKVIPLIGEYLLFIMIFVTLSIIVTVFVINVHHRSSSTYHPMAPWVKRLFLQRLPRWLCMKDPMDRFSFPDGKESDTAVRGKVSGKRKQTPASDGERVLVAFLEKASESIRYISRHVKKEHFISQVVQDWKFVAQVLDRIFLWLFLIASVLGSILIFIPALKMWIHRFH
Sequence of rat α6β2* nAChR (P12390 25-500): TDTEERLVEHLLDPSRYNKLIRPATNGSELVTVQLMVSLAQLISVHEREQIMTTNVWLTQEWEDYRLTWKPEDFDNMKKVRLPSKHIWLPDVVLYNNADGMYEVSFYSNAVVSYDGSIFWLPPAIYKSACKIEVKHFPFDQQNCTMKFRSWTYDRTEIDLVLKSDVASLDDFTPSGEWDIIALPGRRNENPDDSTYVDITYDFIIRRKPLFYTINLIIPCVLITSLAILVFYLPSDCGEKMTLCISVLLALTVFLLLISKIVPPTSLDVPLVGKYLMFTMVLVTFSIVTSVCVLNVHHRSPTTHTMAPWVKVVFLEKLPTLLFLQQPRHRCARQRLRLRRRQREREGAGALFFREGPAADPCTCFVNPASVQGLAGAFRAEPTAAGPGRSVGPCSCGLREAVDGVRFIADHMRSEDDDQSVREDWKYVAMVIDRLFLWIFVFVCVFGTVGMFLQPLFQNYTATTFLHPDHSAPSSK
T3 sequence (P32297 32-505): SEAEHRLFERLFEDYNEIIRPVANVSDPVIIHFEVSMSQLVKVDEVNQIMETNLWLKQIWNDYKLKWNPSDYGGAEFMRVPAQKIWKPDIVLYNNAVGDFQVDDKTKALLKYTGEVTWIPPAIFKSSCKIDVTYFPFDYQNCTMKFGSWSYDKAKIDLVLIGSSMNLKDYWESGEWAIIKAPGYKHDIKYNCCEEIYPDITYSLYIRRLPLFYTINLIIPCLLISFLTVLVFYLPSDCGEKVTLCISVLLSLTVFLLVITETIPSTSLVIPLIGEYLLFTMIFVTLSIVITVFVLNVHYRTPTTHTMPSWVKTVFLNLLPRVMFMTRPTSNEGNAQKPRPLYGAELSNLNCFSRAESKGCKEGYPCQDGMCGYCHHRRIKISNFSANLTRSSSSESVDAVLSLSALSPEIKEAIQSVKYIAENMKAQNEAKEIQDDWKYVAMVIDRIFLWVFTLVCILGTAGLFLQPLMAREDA
T3 sequence (P30926 22-498): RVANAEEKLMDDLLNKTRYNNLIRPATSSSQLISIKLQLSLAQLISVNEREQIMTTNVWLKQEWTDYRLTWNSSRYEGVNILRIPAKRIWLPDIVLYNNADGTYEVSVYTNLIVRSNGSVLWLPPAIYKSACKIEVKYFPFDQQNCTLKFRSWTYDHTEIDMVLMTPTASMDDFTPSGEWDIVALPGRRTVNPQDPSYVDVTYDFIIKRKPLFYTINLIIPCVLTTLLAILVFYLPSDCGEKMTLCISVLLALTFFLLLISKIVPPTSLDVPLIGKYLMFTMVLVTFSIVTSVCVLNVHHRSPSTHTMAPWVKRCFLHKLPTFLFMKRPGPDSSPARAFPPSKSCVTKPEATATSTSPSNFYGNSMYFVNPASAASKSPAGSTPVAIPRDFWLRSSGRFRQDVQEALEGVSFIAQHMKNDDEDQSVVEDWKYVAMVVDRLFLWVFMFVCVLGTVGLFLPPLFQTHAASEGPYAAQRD

O=S1(=O)c2ccc(F)cc2-c2ccc(N3CCN4CCC3CC4)cc21 [Compound 10a, 7-(1,4-Diazabicyclo[3.2.2]nonan-4-yl)-2-fluorodibenzo[b,d]thiophene 5,5-dioxide]
Selectivity (Ki ratio) α7/α3β4 (human α7 nAChR; Ki hα3β4 divided by Ki hα7): 198 | Selectivity (Ki ratio) α7/α4β2 (human α7 nAChR; Ki hα4β2 divided by Ki hα7): 862 | Ki (human α7 nAChR; stably transfected SH-SY5Y cells, [3H]methyllycaconitine, read-out: Affinity (Ki in nM) hα7): 0.6 ± 0.44 nM | Ki (human α4β2 nAChR): 517 ± 375 nM | Ki (human α3β4 nAChR): 119 ± 29 nM | Ki (rat α6β2* nAChR): 589 ± 217 nM | inhibition at 0.1 µM (human 5-HT3 receptor; 0.1 μM concentration of test compound, [3H]GR65630 binding, read-out: 5-HT3 percentage of inhibition): 2% | Ki (human 5-HT3 receptor; recombinant HEK293 cells, [3H]GR65630, estimated from seven concentrations (20 μM–5 nM), read-out: Affinity (Ki in nM) 5-HT3): 440 nM | binding to α1 nAChR (α1 nAChR): no significant binding | binding to SERT [1]: no significant binding | binding to DAT [2]: no significant binding | binding to NET [3]: no significant binding | binding to VMAT [4]: no significant binding | binding to choline transporter (choline transporter): no significant binding | body weights, control vs treated groups ([5]; 6.2, 62 and 620 μg∙kg^−1 single i.v., either gender): No statistically significant differences | clinical observation ([5]; 6.2, 62 and 620 μg∙kg^−1 single i.v., rats): no notable clinical effects | pathological and histopathological parameters ([5]; single i.v., Day 2 or Day 15, rats): did not result in changes | no observed effect level (NOEL) ([5]; single intravenous injection, rats, observation 2 or 15 day): 0.62 mg/kg | Ki (α7 nAChR [6]): 1.4 nM | Ki (α3β4 nAChR): 5000 nM

CCN(CC)CCOc1ccc2c(c1)C(=O)c1cc(OCCN(CC)CC)ccc1-2 [tilorone]
Ki (α7 nAChR [7]): 56 nM
